# Experimental data: patent publication US6916806B2, “Medicinal composition containing 1,3-thiazine derivative” (priority 2001, dated 2005)
# Tests used:
# [1] = molecular target: T1, human CB2 receptor (CB2R) (Homo sapiens, UniProt P34972); assay: Human CB2 receptor (CB2R) binding inhibition, [3H]CP55940, membranes of CB2R-expressing CHO cells
# T1 construct: The coding region of human CB2R cDNA (Munro etc, Nature, 1993, 365, 61-65) was inserted; expressed in transfected cells
# Method: (§1) The coding region of human CB2R cDNA (Munro etc, Nature, 1993, 365, 61-65) was inserted into the mammalian expression vector, pSVL SV40 Late Promoter Expression Vector (Amersham Pharmacia Biotech Inc.). The prepared vector was transfected into Chinese Hamster Ovary (CHO) cells with LipofectAMINE reagent (Gibco BRL) according to the manufacture's protocol, and the stable CB2R-expressing clones were selected.
# (§2) The crude membrane fractions were prepared from the CB2R-expressing CHO cells. Receptor binding assay was performed by incubating the membranes with each test compound and [^3H]CP55940 (at a final concentration of 0.5 nM: NEN Life Science Products) in the assay buffer (50 mM Tris-HCl, 1 mM EDTA, 3 mM MgCl2, pH 7.4) containing 0.5% bovine serum albumin (BSA) for 2 h at 25° C. The incubation mixture was filtered through 1% polyethylenimine-treated GF/C glass filter and washed with 50 mM Tris-HCl (pH 7.4) containing 0.1% BSA. The radioactivity was then counted with a liquid scintillation counter.
# (§3) For the receptor binding assay of human CB1 receptor (CB1R), the stable CB1R-expressing CHO cells were prepared as described above, and the binding assay was performed using their membrane fractions. As a consequence of these studies, the Ki values of each test compound for both cannabinoid receptors were determined, which were presented in Table.
# [2] = molecular target: T2, human CB1 receptor (CB1R) (Homo sapiens, UniProt P21554); assay: Receptor binding assay of human CB1 receptor (CB1R), membranes of CB1R-expressing CHO cells
# T2 construct: expressed in transfected cells
# T2 sequence (P21554 whole entry): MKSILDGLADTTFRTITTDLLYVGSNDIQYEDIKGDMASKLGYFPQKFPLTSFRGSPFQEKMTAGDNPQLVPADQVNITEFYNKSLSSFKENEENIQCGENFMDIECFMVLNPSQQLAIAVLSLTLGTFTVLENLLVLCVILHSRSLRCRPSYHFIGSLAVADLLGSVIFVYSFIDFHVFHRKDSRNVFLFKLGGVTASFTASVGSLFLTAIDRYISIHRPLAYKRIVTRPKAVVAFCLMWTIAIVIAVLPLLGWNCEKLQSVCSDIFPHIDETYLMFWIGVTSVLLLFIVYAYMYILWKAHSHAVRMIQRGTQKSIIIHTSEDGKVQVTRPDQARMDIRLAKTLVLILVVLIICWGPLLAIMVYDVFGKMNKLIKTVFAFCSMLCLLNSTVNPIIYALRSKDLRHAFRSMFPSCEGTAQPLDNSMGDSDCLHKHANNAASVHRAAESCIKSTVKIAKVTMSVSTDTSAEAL
# Method: as §1, §2, §3
# human CB2R = molecular target: T3, human CB2R (Homo sapiens, UniProt P34972); assay: CB2R-mediated suppression of forskolin-stimulated cAMP synthesis in CHO cells expressing human CB2R; type: cell-based
# T3 construct: The coding region of human CB2R cDNA (Munro etc, Nature, 1993, 365, 61-65) was inserted; expressed in transfected cells
# T3 sequence (P34972 whole entry): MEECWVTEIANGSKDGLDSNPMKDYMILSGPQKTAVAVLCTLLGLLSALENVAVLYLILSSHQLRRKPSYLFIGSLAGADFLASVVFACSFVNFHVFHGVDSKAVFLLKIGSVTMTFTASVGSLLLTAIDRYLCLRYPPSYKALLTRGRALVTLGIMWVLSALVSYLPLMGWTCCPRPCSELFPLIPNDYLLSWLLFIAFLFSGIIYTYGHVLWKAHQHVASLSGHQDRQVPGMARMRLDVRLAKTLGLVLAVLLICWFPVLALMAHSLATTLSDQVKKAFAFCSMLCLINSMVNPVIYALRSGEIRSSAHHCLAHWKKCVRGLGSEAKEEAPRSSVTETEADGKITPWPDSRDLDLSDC
# Method: The CHO cells expressing human CB2R were incubated with test compounds for 15 min. After the incubation, forskolin (final concentration of 4 μM, Sigma) was added and the cells were incubated for 20 min at 37° C. The reaction was stopped by the addition of 1N HCl and the amount of cAMP in the cell supernatant was measured using an EIA kit (Amersham Pharmacia Biotech) according to the manufacture's protocol.
# The antagonistic activity of each compound was also evaluated in this assay.
# T1 sequence (P34972 whole entry): as above
Structure (SMILES),Ki [1] [nM],melting point [°C],Ki [2] [nM],IC50 (human CB2R) [nM]
CC(C)OC(=O)CSC(=S)N1CC(C)(C)CSC1=Nc1ccccc1C(C)C [Compound I-13],6,95 to 96,,
CC(C)c1ccccc1N=C1SCC(C)(C)CN1C(=S)SCC(=O)OC(C)(C)C [Compound I-14],2,,> 5000,
C=CCSC(=S)N1CC(CC)(CC)CSC1=Nc1ccccc1C(C)C [Compound I-39],2,,906,13.7
CCOC(=O)CSC(=S)N1CC(CC)(CC)CSC1=Nc1ccccc1C(C)C [Compound I-40],0.5,,,
CCC1(CC)CSC(=Nc2ccccc2C(C)C)N(C(=S)SCC(=O)OC(C)C)C1 [Compound I-41],1,,,
CCC1(CC)CSC(=Nc2ccccc2C(C)C)N(C(=S)SCC(=O)OC(C)(C)C)C1 [Compound I-42],0.3,,> 5000,
CC=CCSC(=S)N1CC(CC)(CC)CSC1=Nc1ccccc1C(C)C [Compound I-44],1.1,,321,
CCC1(CC)CSC(=Nc2ccccc2C(C)C)N(C(=S)SCC=C(C)C)C1 [Compound I-45],1.2,,386,
C=CCCSC(=S)N1CC(CC)(CC)CSC1=Nc1ccccc1C(C)C [Compound I-46],2,,3230,5.4
C=CCSC(=S)N1CC(CC)(CC)CSC1=Nc1ccccc1C(C)CC (stereo not drawn) [Compound I-49],2.9,,1120,2.2
C=CCSC(=S)N1CC2(CCCC2)CSC1=Nc1ccccc1C(C)C [Compound I-74],1.2,,704,1.6
Cc1cc(CSC(=S)N2CC3(CCCC3)CSC2=Nc2ccccc2C(C)C)on1 [Compound I-78],,,1020,
COc1ccccc1N=C1SCC2(CCCC2)CN1C(=S)SCC(=O)OC(C)(C)C [Compound I-80],2.2,,> 5000,
C=CCSC(=S)N1CC2(CCCCC2)CSC1=Nc1ccc(CC)cc1 [Compound I-88],,98 to 100,,
C=CCSC(=S)N1CC2(CCOCC2)CSC1=Nc1ccccc1C(C)C [Compound I-92],6,73.5 to 75,1310,< 0.2
CSC(=S)N1CC2(CCOCC2)CSC1=Nc1ccccc1C(C)C [Compound I-93],3,127 to 128,1540,0.6
